The values that follow come from patent US11174269B2, “Method for producing 1,2,4,5-cyclohexanetetracarboxylic dianhydride” (MITSUBISHI GAS CHEMICAL COMPANY, INC., priority 2017, dated 2021).

SMILES strings stand for the structures.

The data set in a line: Saturation solubility of 1,2,4,5-cyclohexanetetracarboxylic acid in water. The class given is physicochemical. The text has this: Here, the saturation solubility of 1,2,4,5-cyclohexanetetracarboxylic acid in water is as follows.

On to `O=C(O)C1CC(C(=O)O)C(C(=O)O)CC1C(=O)O` (stereo not drawn) [1,2,4,5-cyclohexanetetracarboxylic acid], for which the “Saturation solubility (concentration of a saturated aqueous solution)” value is, setting by setting: (88.2 °C) 29.6 % by mass; (98.3 °C) 33.1 % by mass; (100 °C) 33.7 % by mass.
